How the values were obtained:
[1] = tested on: Streptococcus pneumoniae (SPN0002); assay: Lung infection model in neutropenic mice; type: in vivo
Description: Antimicrobial lipopeptide derivatives of the instant invention were tested for antimicrobial activity against Gram-positive bacteria in an intranasal (i.n.), immunocomprimised murine lung infection model (i.e., bacteria were innoculated i.n. and lipopeptide compounds were administered i.v.). Streptococcus pneumoniae (SPN0002) were grown on 5% sheep blood agar plates for 24 h at 37° C., harvested and then resuspended in 0.9% saline. A group of three to four Swiss CD1 mice were rendered neutropenic by administration of cyclophosphamide (Sigma Chemical Co.; 150 mg/kg, i.p.) on day −4 and −1 before infection. At time −18 to −24 hours, each mouse was infected i.n. dropwise via the nares with 50 μl of the prepared bacterial inoculum (i.e., a dose of about 5×10^6 CFU/mouse). At 18 to 24 hours post-infection, the groups of mice received i.v. (1) a lipopeptide derivative formulated in a 5% D-mannitol solution at a dose of about 1 mg/kg, 3 mg/kg, 10 mg/kg, or 30 mg/kg; (2) the 5% mannitol vehicle alone at a dose volume of 10 mL/kg; or (3) a known antibiotic, such as ampicillin, at a similar dose as the lipopeptide compounds. At 18 to 24 hours post-antibiotic treatment, mice were sacrificed and lungs harvested. Lungs were sampled by spreading homogenates on blood agar plates and incubating for 24 h at 37° C., and then counting the number of CFU. The EKill (killing effect; i.e., log10 CFU/lung reduction as compared to CFU count at intial treatment time) and the EMax (maximum reduction effect; i.e., log10 CFU/lung reduction as compared to CFU count of control at 24 hours) for each compound was calculated.

[2] = tested on: Staphylococcus aureus (SAU0017); assay: Thigh infection model in neutropenic mice; type: in vivo; conditions: neutropenic Swiss CD1 mice, i.m. S. aureus, i.v. treatment two hours post-infection, thigh CFU at 24 hours
Description: Other exemplary in vivo models of infection that may be used to assess, for example, the efficacy of an antimicrobial lipopeptide of the instant disclosure include the following: (A) a mouse (murine) model of lung infection (pneumonia) wherein the bacterial infection is administered intranasally (i.n.); (B) a murine thigh muscle model wherein the bacterial infection is administered intramuscularly (i.m.) in normal or neutropenic (immunocompromised) mice; and (C) a combination murine thigh muscle model (i.m. infection)/lung (i.n.) infection.

[3] = tested on: Staphylococcus aureus (MSSA); conditions: 24 h
Summary of the method: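 Broth microdilution MIC per NCCLS M7-A6 with doubling serial dilutions, in cation-adjusted Mueller-Hinton broth supplemented with 0.625 mM calcium.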

SMILES	EKill (log10 CFU/lung reduction versus count at initial treatment time) ([1]; 30 mg/kg i.v.) [log10 CFU/lung]	log10 CFU/lung reduction (EMax, versus control at 24 hours) ([1]; highest dose level 30 mg/kg i.v.) [log10 CFU/lung]	ED50 [2] [mg/kg]	MIC [3] [µg/mL]
CCCCCCCCCCCCCCC(=O)NC(CC(=O)O)C(=O)NC1C(=O)N2CCCCC2C(=O)NC(C(C)C(=O)O)C(=O)NC(CC(=O)O)C(=O)NCC(=O)NC(CC(=O)O)C(=O)NCC(=O)NC(C(C)NC(=O)CCN)C(=O)NC(C(C)C)C(=O)N2CCCC2C(=O)NC1C (stereo not drawn) [Compound 147, C15-Amphomycin-9-(β-Ala)]	3.2	4.0	1.1 to 1.8	–
CCCCCCCCCCCCCCC(=O)NC(CC(=O)O)C(=O)NC1C(=O)N2CCCCC2C(=O)NC(C(C)C(=O)O)C(=O)NC(CC(=O)O)C(=O)NCC(=O)NC(CC(=O)O)C(=O)NCC(=O)NC(C(C)NC(=O)CN(C)C(=O)[C@@H](N)CCCCN)C(=O)NC(C(C)C)C(=O)N2CCCC2C(=O)NC1C (stereo partly shown) [Compound 199, C15-Amphomycin-9-Sar-Lys]	–	–	–	0.5 to 1

From patent publication US7868135B2, “Compositions of lipopeptide antibiotic derivatives and methods of use thereof” (priority 2003, dated 2011)
